Test system: non-bacterial prostatitis
Test: Therapeutic effects on non-bacterial prostatitis (Xiaozhiling injection into prostate)
Format: in vivo, SD rats
Details: for Average of Body Weight / Average Volume of Prostate / Average Weight of Prostate / Inhibition of Organ-coefficient / Organ Coefficient: 5 weeks
Method: Fifty-five male SD rats were randomly divided into 6 groups, 9 each, except the negative control group for which 10 animals were used. All animals from group 1 to 6 were anesthetized by injection of ketamine under sterile conditions and incised around 1.5 cm with a sterilized surgery scalpel at middle of abdomen. Animals in Group 1 were injected penicillin to prevent infection, and given distill water, 10 ml/kg, once a day, 5 times a week for 5 weeks. Groups from 2 to 6 injected 25% Xiaozhiling into left and right lobes of prostate, 0.1 ml for each lobe and sew the muscle and skin with #1 silk thread. The animals were then given penicillin to prevent infectious. Group 2 was served as negative control group in which animals were treated with distill water by gavage 24 hrs after the Xiaozhiling injection, once a day, 5 times a week for 5 weeks. Group 3 was served as positive control group in which animals were treated with GENURIN by gavage 24 hrs after the Xiaozhiling injection at dose of 60 mg/kg, once a day, 5 times a week (escaping weekend) for 5 weeks. […] On the last dosing day, urine samples from different groups that covered periods of 1, 2 and 3 hrs were collected.
Twenty-four hrs after the last dose, the animals were euthanized and weighed. Volume and weight of prostate were measured. The averages of the prostate weight/volume and organ coefficient (average weight of prostate/average of body weight) were calculated, and statistical analysis performed (t test).
Prostate tissues of animals from different groups were embedded with paraffin. The tissue sections were stained with H&E for histpathological examination by an anatomical pathologist.

`S=C=NCCc1ccccc1` [PEITC, phenethyl isothiocyanate] was tested, and the “Average of Body Weight” value (PEITC 1 mg/kg gavage (Example 13-11)) was 377 ± 39.1 g, the “Average Volume of Prostate” value (PEITC 1 mg/kg gavage) was 0.78 ± 0.16 cm^3 and the “Average Weight of Prostate” value (PEITC 1 mg/kg gavage) was 0.7 ± 0.15 g. For the same molecule, the “Inhibition of Organ-coefficient” value (PEITC 1 mg/kg gavage) was 28.46%, the “Organ Coefficient” value (PEITC 1 mg/kg gavage) was 0.186 ± 0.03 % and the “Bleeding: no. of animals with score 0” value (PEITC 1 mg/kg, 9 animals) was 7. For the same molecule, the “Bleeding: no. of animals with score +” value (PEITC 1 mg/kg, 9 animals) was 2, the “Bleeding: no. of animals with score ++” value (PEITC 1 mg/kg, 9 animals) was 0 and the “Bleeding: no. of animals with score +++” value (PEITC 1 mg/kg, 9 animals) was 0. For the same molecule, the “Chronic Inflammatory Infiltration: no. of animals with score 0” value (PEITC 1 mg/kg, 9 animals) was 9, the “Chronic Inflammatory Infiltration: no. of animals with score +” value (PEITC 1 mg/kg, 9 animals) was 0 and the “Chronic Inflammatory Infiltration: no. of animals with score ++” value (PEITC 1 mg/kg, 9 animals) was 0. The “Chronic Inflammatory Infiltration: no. of animals with score +++” value (PEITC 1 mg/kg, 9 animals) was 0, the “Congestion: no. of animals with score 0” value (PEITC 1 mg/kg, 9 animals) was 3 and the “Congestion: no. of animals with score +” value (PEITC 1 mg/kg, 9 animals) was 6. The “Congestion: no. of animals with score ++” value (PEITC 1 mg/kg, 9 animals) was 0, the “Congestion: no. of animals with score +++” value (PEITC 1 mg/kg, 9 animals) was 0 and the “Edema: no. of animals with score 0” value (PEITC 1 mg/kg, 9 animals) was 3. For the same molecule, the “Edema: no. of animals with score +” value (PEITC 1 mg/kg, 9 animals) was 6, the “Edema: no. of animals with score ++” value (PEITC 1 mg/kg, 9 animals) was 0 and the “Edema: no. of animals with score +++” value (PEITC 1 mg/kg, 9 animals) was 0. For the same molecule, the “Fibrous Exudation: no. of animals with score 0” value (PEITC 1 mg/kg, 9 animals) was 5, the “Fibrous Exudation: no. of animals with score +” value (PEITC 1 mg/kg, 9 animals) was 4 and the “Fibrous Exudation: no. of animals with score ++” value (PEITC 1 mg/kg, 9 animals) was 0. The “Fibrous Exudation: no. of animals with score +++” value (PEITC 1 mg/kg, 9 animals) was 0, the “Histopathological score of prostatitis, Overall Average X ± SD” value (PEITC 1 mg/kg, 9 animals) was 1.83 ± 1.06 and the “Hyperblastosis: no. of animals with score 0” value (PEITC 1 mg/kg, 9 animals) was 7. The “Hyperblastosis: no. of animals with score +” value (PEITC 1 mg/kg, 9 animals) was 2, the “Hyperblastosis: no. of animals with score ++” value (PEITC 1 mg/kg, 9 animals) was 0 and the “Hyperblastosis: no. of animals with score +++” value (PEITC 1 mg/kg, 9 animals) was 0. For the same molecule, the “Inflammatory Infiltration: no. of animals with score 0” value (PEITC 1 mg/kg, 9 animals) was 9, the “Inflammatory Infiltration: no. of animals with score +” value (PEITC 1 mg/kg, 9 animals) was 0 and the “Inflammatory Infiltration: no. of animals with score ++” value (PEITC 1 mg/kg, 9 animals) was 0. The “Inflammatory Infiltration: no. of animals with score +++” value (PEITC 1 mg/kg, 9 animals) was 0, the “congestion, edema, fibroid and leukocyte infiltration versus untreated prostatitis animals (slide)” value (PEITC 1 mg/kg, FIG. 7.5) was “less severe” and the “urine, 1 h Period” value (PEITC 1 mg/kg, last dosing day) was 5.5 ± 1.0 mL. The “urine, 2 h Period” value (PEITC 1 mg/kg, last dosing day) was 7.0 ± 0.7 mL, the “urine, 3 h Period” value (PEITC 1 mg/kg, last dosing day) was 7.9 ± 1.0 mL and the “Average of Body Weight” value (PEITC 2 mg/kg gavage (Example 13-11)) was 360 ± 24.8 g. The “Average Volume of Prostate” value (PEITC 2 mg/kg gavage) was 0.82 ± 0.13 cm^3, the “Average Weight of Prostate” value (PEITC 2 mg/kg gavage) was 0.70 ± 0.12 g and the “Inhibition of Organ-coefficient” value (PEITC 2 mg/kg gavage) was 27.69%. For the same molecule, the “Organ Coefficient” value (PEITC 2 mg/kg gavage) was 0.188 ± 0.03 %, the “Bleeding: no. of animals with score 0” value (PEITC 2 mg/kg, 9 animals) was 8 and the “Bleeding: no. of animals with score +” value (PEITC 2 mg/kg, 9 animals) was 1. For the same molecule, the “Bleeding: no. of animals with score ++” value (PEITC 2 mg/kg, 9 animals) was 0, the “Bleeding: no. of animals with score +++” value (PEITC 2 mg/kg, 9 animals) was 0 and the “Chronic Inflammatory Infiltration: no. of animals with score 0” value (PEITC 2 mg/kg, 9 animals) was 8. For the same molecule, the “Chronic Inflammatory Infiltration: no. of animals with score +” value (PEITC 2 mg/kg, 9 animals) was 0, the “Chronic Inflammatory Infiltration: no. of animals with score ++” value (PEITC 2 mg/kg, 9 animals) was 1 and the “Chronic Inflammatory Infiltration: no. of animals with score +++” value (PEITC 2 mg/kg, 9 animals) was 0. The “Congestion: no. of animals with score 0” value (PEITC 2 mg/kg, 9 animals) was 4, the “Congestion: no. of animals with score +” value (PEITC 2 mg/kg, 9 animals) was 5 and the “Congestion: no. of animals with score ++” value (PEITC 2 mg/kg, 9 animals) was 0. For the same molecule, the “Congestion: no. of animals with score +++” value (PEITC 2 mg/kg, 9 animals) was 0, the “Edema: no. of animals with score 0” value (PEITC 2 mg/kg, 9 animals) was 6 and the “Edema: no. of animals with score +” value (PEITC 2 mg/kg, 9 animals) was 3.

Reference: US8410170B2, “Use of isothiocyanates compounds in treating prostatic diseases and skin cancer” (Wuxi JC Pharmaceutical Technology Co., Ltd., priority 2005, dated 2013)
